Results published in PubChem BioAssay (NCI).
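Briefly, cells in 96-well plates were exposed to five compound concentrations for 48 h, and endpoints were estimated by linear interpolation. The concentration for full growth arrest is given as TGI.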

Tests used:
Assay in all cases: NCI tumour cell line growth inhibition, 48 h
[1] = system: NCI-H226 lung
[2] = system: NCI-H23 lung
[3] = system: COLO 205 colon
[4] = system: HOP-92 NSCLC
[5] = system: HT29 colon
[6] = system: CCRF-CEM leukemia
[7] = system: HOP-62 NSCLC
[8] = system: HCT-116 colon
[9] = system: MDA-MB-231 breast
[10] = system: UO-31 renal

Compound	TGI [1] [µM]	TGI [2] [µM]	TGI [3] [µM]	TGI [4] [µM]	TGI [5] [µM]	TGI [6] [µM]	TGI [7] [µM]	TGI [8] [µM]	TGI [9] [µM]	TGI [10] [µM]
COC(=O)c1cc(=O)nc2sc3cccc(C)c3n12	> 100	> 100	29.8	69.1	> 100	> 100	> 100	> 100	> 100	–
CN1CCc2cc(N)cc3c2C1Cc1ccc(O)c(O)c1-3 (stereo not given)	82.8	> 100	> 100	> 100	> 100	37.2	> 100	> 100	> 100	95.9
CCOC(=O)/C=C/CC(C)(C)CCOC(C)=O	> 10	> 10	> 10	> 10	> 10	> 10	> 10	> 10	> 10	> 10
COc1cc2c(c(OC)c1OC)C(=O)[C@@H]1[C@H]2N1C(N)=O	> 100	> 100	> 100	–	> 100	> 100	> 100	> 100	> 100	> 100
CCCCCCCCCCCCCCNC(=O)CCC(NC(=O)c1ccc(N(C)Cc2cnc3nc(N)nc(N)c3n2)cc1)C(=O)NCCCCCCCCCCCCCC (stereo not given)	> 100	20.8	> 62.9	63.8	27	> 31.6	21.2	> 100	> 44.8	53.6
COc1ccc2c(c1)/C(=C/CCN(C)C)c1ccccc1S2	> 100	> 100	38	> 100	> 100	> 100	–	> 100	> 100	88.6
O=c1c2cc([N+](=O)[O-])cnc2sn1-c1ccc([N+](=O)[O-])cc1	> 100	> 100	37.3	–	55.8	82.2	> 100	83.9	53.6	> 100
O=c1[nH]c(Nc2cccc(CC(F)(F)F)c2)nc2nc[nH]c12	> 100	> 100	> 100	> 100	> 100	> 100	> 100	> 100	> 100	> 100
Cc1ccccc1C(=O)N1CCc2c([nH]c3ccccc23)C1	65	50.9	31.9	44.4	44.7	74	> 100	33	34.1	> 100
COC(=O)C([C@H](NC1(c2ccccc2)c2ccccc2-c2ccccc21)C(=O)OC)N(NC(=O)OCc1ccccc1)C(=O)OCc1ccccc1 (mixture of isomers)	–	> 100	> 100	> 100	> 100	> 100	> 100	> 100	> 100	> 100
